B1: PigF, O-methyltransferase of the prodigiosin synthetic pathway from Serratia marcescens FS14 (enzyme)
chain: MPLTKQDAVNQMMGFFQAKALTAALALKLFDQLRDRDADAAHIAARLDCPARSTEQLLIALRAMGYLDQRDGLYHLPAAHRAFLLSDEPQWLGWLGRHIDTFLYPLWGELKTAVRNDAHQRRTVFGDDRSWFDILYQNPDDVADFQEFLGKFAAPFIAGFVRDYDFSQHRAFLDIGSGIGSLPMAIADAYPGIALAICELPQASAFLRDKLTLQGYGERIDVVEGDVISGDLPIGGYDLIHLGWMLHDYAPETQLTILRNIYRAMPAGGRFIASETPLNEDKSGPEFTALLSLNMLVSTDGGIESSAQEYLDRFRLAGFSNARIMKIAGPRTLIVGEK
notes: PigF of Serratia marcescens FS14, 338 amino-acid residues; 100% identical to PigF of S. marcescens VGH107 (NCBI WP 004940222.1); residues 3-338 are seen in both chains of the PigF-SAH structure; Cloned into pET-24b as in Liu et al., 2012; The results call the protein N-terminally polyhistidine-tagged; pET-24b usually adds a C-terminal His tag (surmise); Crystallised with 2 mM SAH (small molecule) …

Legend:
[1] = target: T1, PigF (Serratia marcescens, UniProt Q5W249); test: X-ray crystal structure (co-crystallisation), […] A; assay type: binding; settings: 2 mM SAH premixed 30 min; pH 4.6, 12% MPD; cofactor site in C-terminal catalytic domain
T1 construct: residues 3-338 seen in SAH complex

[2] = target: the molecule itself; test: native gel or EMSA; nondenaturing gel, comparison with standards; PigF in solution

Molecule | X-ray crystal structure (co-crystallisation), 1.97 A [1] | stoichiometry N [2]
Nc1ncnc2c1ncn2[C@@H]1O[C@H](CSCC[C@H](N)C(=O)O)[C@@H](O)[C@H]1O [S-adenosylhomocysteine] | the resulting phased map revealed clear electron density for the entire protein molecule and the SAH cofactor | –
B1 | – | 2

Reference: PMC8895007, “Crystal structures of PigF, an O-methyltransferase involved in the prodigiosin synthetic pathway, reveal an induced-fit substrate-recognition mechanism” (IUCrJ, 2022)
